Drawing on the NIST ThermoML archive (doi:10.1016/j.jct.2012.06.023), this text covers refractive index, surface tension liquid-gas and viscosity for seven molecules.

Data set [1] in a line: refractive index (Na D-line) (dimensionless). The settings on record: 293.1 K; 101.33 kPa; Liquid; Standard Abbe refractometry.
The conditions of data set [2]: 298.15 K; for surface tension liquid-gas: Wilhelmy plate; for viscosity: 101.33 kPa, Liquid, Concentric cylinders viscometry.
The nature of data set [3]: xn = mol fraction of the nth substance listed. The settings on record: x1 = 1; for surface tension liquid-gas: Wilhelmy plate; for viscosity: 101 kPa, Liquid, Concentric cylinders viscometry.

The structures appear in SMILES notation. ± gives the expanded uncertainty stated by the source.

In general, refractive index refers to a measure of how strongly the sample bends light. By surface tension liquid-gas is commonly meant the force per length acting along the surface. In general, viscosity refers to the resistance of a fluid to flow. Regarding `CN(C)C=O` [dimethylformamide], the refractive index in data set [1] came to 1.429 ± 0.02. In data set [2], the surface tension liquid-gas is on record as 35.2 ± 0.04 mN/m and the viscosity was 0.8162 ± 0.0092 mPa·s.
As for `CN(C)C=O` [dimethylformamide] + CCCCCCCO, the surface tension liquid-gas is reported as 35.2 ± 0.04 mN/m in data set [3] (298.15 K), 34.1 ± 0.04 mN/m in data set [3] (303.15 K), 33 ± 0.04 mN/m in data set [3] (308.15 K) and 32 ± 0.03 mN/m in data set [3] (313.15 K). Moreover, the viscosity in data set [3] (298.15 K) amounted to 0.8162 ± 0.0092 mPa·s; in data set [3] (303.15 K), 0.7678 ± 0.0091 mPa·s; in data set [3] (308.15 K), 0.7262 ± 0.009 mPa·s; in data set [3] (313.15 K), 0.678 ± 0.0089 mPa·s.
In the case of `CN(C)C=O` [dimethylformamide] + CCCCCCO, the surface tension liquid-gas in data set [3] (298.15 K) turned out to be 35.2 ± 0.04 mN/m; in data set [3] (303.15 K), 34.1 ± 0.04 mN/m; in data set [3] (308.15 K), 33 ± 0.04 mN/m; in data set [3] (313.15 K) it was 32 ± 0.03 mN/m. For the same molecule, the viscosity in data set [3] (298.15 K) is given as 0.8162 ± 0.0092 mPa·s; in data set [3] (303.15 K), 0.7678 ± 0.0091 mPa·s; in data set [3] (308.15 K) it was 0.7262 ± 0.009 mPa·s; in data set [3] (313.15 K), 0.678 ± 0.0089 mPa·s.
`CN(C)C=O` [dimethylformamide] + CCCCCO: the surface tension liquid-gas in data set [3] (298.15 K) was found to be 35.2 ± 0.04 mN/m; in data set [3] (303.15 K) it was 34.1 ± 0.04 mN/m; in data set [3] (308.15 K), 33 ± 0.04 mN/m; in data set [3] (313.15 K) it was 32 ± 0.03 mN/m. For the same molecule, the viscosity in data set [3] (298.15 K) is 0.8162 ± 0.0092 mPa·s; in data set [3] (303.15 K), 0.7678 ± 0.0091 mPa·s; in data set [3] (308.15 K), 0.7262 ± 0.009 mPa·s; in data set [3] (313.15 K), 0.678 ± 0.0089 mPa·s.
Turning to `CCCCCCCO` [heptan-1-ol], the refractive index in data set [1] amounted to 1.424 ± 0.02. For the same molecule, in data set [2], the surface tension liquid-gas is on record as 26.47 ± 0.13 mN/m and the viscosity is 5.944 ± 0.038 mPa·s.
Consider `CCCCCCO` [hexan-1-ol], for which the refractive index in data set [1] is listed as 1.418 ± 0.001. The viscosity in data set [2] was 4.593 ± 0.022 mPa·s.
Regarding `CCCCCO` [pentan-1-ol], in data set [1], the refractive index is recorded as 1.409 ± 0.02. Also, in data set [2], the surface tension liquid-gas is listed as 24.55 ± 0.062 mN/m and the viscosity came to 3.5 ± 0.018 mPa·s.
